Measurements: patent US11813244B2, “Agent for eliminating senescent cells” (NIIGATA UNIVERSITY, priority 2016, dated 2023)
“Also recorded” adds a separate entry of the source.

Experiments:
[1] = test system: human umbilical cord vein derived vascular endothelial cells (HUVECs); assay: Apoptosis induction in young and aged HUVECs (AnnexinV/PI/Hoechst 33258, FACS analysis); format: cell-based; conditions: 48 hours, relative to Con, 2DG 1 mM, 3HB 20 mM, AIC 200 μM
Experimental: (§1) Specifically, human umbilical cord vein derived vascular endothelial cells (HUVECs, Lonza) were cultured in a prescribed culture medium (EBM-2/EGM-2, Lonza). Less than 10 passages were defined as young and 15 passages or more were defined as aged. For young or aged HUVEC, 2DG, 3HB, and AIC were added to the culture solutions at the concentrations of 1 mM, 20 mM, and 200 μM, respectively, and the cells were harvested after 48 hours. The collected cells were evaluated for viability by fluorescence/absorbance measurements using ApoTox-Glo™ Triplex Assay kit (Promega). Dead cells were stained using AnnexinV (Becton & Dickinson (BD)), PI (Sigma-Aldrich), and Hoechst 33258 (Invitrogen), and the percentage of apoptosis-induced cells was quantified by FACS analysis.

[2] = test system: human umbilical cord vein derived vascular endothelial cells (HUVECs); assay: Cell viability of young and aged HUVECs (ApoTox-Glo Triplex Assay); format: cell-based; conditions: 48 hours, 2DG 1 mM, 3HB 20 mM, AIC 200 μM; for selectivity of the effects for aged versus young cells: aged (15 passages or more) vs young (less than 10 passages) HUVECs, viability and apoptosis; for cell viability: young and aged HUVECs, relative to Con
Experimental: as §1

[3] = test system: Hutchinson-Gilford progeria model mice (Zmpste24-deficient mice); assay: General condition of Hutchinson-Gilford progeria model mice; format: in vivo; conditions: canagliflozin 0.03% w/w in diet, 3 to 4 weeks, KO+SGLT2i vs KO
Text: Canagliflozin, an SGLT2 inhibitor, mixed in a diet at the concentration of 0.03% w/w was orally administered to 13-week-old Hutchinson-Gilford progeria model mice (Zmpste24-deficient mice), and the general condition of the mice was observed.

[4] = test system: senescent cells in blood vessels; assay: Senescence-associated β-galactosidase staining of blood vessels of atherosclerotic model mice; format: in vivo, ApoE-deficient (ApoE−/−) mice; conditions: ApoE−/− mice on high fat diet 12 weeks, canagliflozin 0.03% w/w in diet, 2 weeks, vs HFD group
Text: (§2) Then, the senescent cells in the visceral adipose tissues collected from the mice of each group were detected according to the conventional method (Dimri, G. P. et al., Proc. Natl. Acad. Sci. U.S.A., 92(20), 9363-9367, 1995). Specifically, each of the visceral adipose tissues was stained with senescence-associated acidic β-galactosidase and the senescent cells were detected. The senescent cells were stained blue by this staining.
Four-week-old ApoE-deficient (ApoE^−/−) mice were fed with high fat diets for 12 weeks, followed by oral administration of canagliflozin, an SGLT2 inhibitor, mixed in the diet at the concentration of 0.03% w/w (hereinafter referred to as “HFD+SGLT2i group”). For comparison, the same mice as described above with the exception of not administering canagliflozin (hereinafter referred to as “HFD group”) were prepared. The blood vessels (from the aorta base to the descending aorta on the diaphragm) were collected from the mice of each group 2 weeks after starting administration of canagliflozin. Subsequently, the senescent cells in blood vessels collected from the mice of each group were detected according to the method described in Experimental Example 2. The stainability was measured at a part ranging from the ascending aorta to the branch of the arch left subclavian artery.

[5] = Metabolome analysis of blood and various tissues of mice after short-term administration of the SGLT2 inhibitor; format: in vivo
Text: It is known that SGLT2 inhibition accelerates fatty acid oxidation and suppresses glycolysis, and that acceleration of glycolysis is observed in senescent cells. Then, whether 3-hydroxybutyrate (hereinafter referred to as “3HB”), AICAR (hereinafter referred to as “AIC”), and 2-deoxyglucose (hereinafter referred to as “2DG”) that has an inhibitory effect on glycolysis have effects to induce apoptosis of senescent cells were examined.

[6] = test system: p16 and p21 mRNA in heart, kidney, skeletal muscle (quadriceps), and brown adipose tissue; assay: Quantitative RT-PCR of p16 and p21 in organs other than visceral adipose tissue of obesity model mice; format: in vivo, mice (C57BL/6NCr); conditions: SGLT2 inhibitor administration for 7 days
Experimental: (§3) Four-week-old wild-type mice (C57BL/6NCr) were fed with high fat diets for 8 weeks to prepare diet-induced obesity model mice. Then, canagliflozin, an SGLT2 inhibitor, was administered orally to the prepared obesity model mice by mixing with the diet at the concentration of 0.03% w/w (hereinafter referred to as “high fat diet+SGLT2i group”).
(§4) Specifically, RNA was extracted with RNA-Bee™ (Tel-Test) from a portion of the visceral adipose tissue (epididymal adipose tissue) collected from the mice of each group 3 days and 1 week after starting administration of canagliflozin. The collected RNA was quantified by Nanodrop (Thermo), and cDNA was then prepared from 1 μg of the RNA using QuantiTect Reverse Transcription Kit (Quiagen). This cDNA was used to quantify the relative expression of mRNAs of p21 and p16 using Actb as the housekeeping gene by quantitative RT-PCR method using Light Cycler 480 (Roche), and TaqMan Universal Probe Library and the Light Cycler Master (Roche). The primers for each RNA were designed using the Probe finder on the Roche website.
Specifically, mRNA expression levels of p16 and p21 in heart, kidney, skeletal muscle (quadriceps), and brown adipose tissue, which were collected from the same mice when the visceral adipose tissue was collected in Experimental Example 2, were quantified using the same methods described in Experimental Example 4.

visceral adipose tissue = assay: Adipose inflammation and oxidative stress in adipose tissue of obesity model mice (HE, DHE, F4/80 staining, CCL2 and TNFα RT-PCR); format: in vivo, mice (C57BL/6NCr); conditions: visceral fat
Experimental: as §3
Specifically, a portion of the visceral fat collected in Experimental Example 4 was immersed and fixed with 10% Mildform (Wako) for at least 24 hours. The sample was dehydrated and embedded in paraffin, and sliced into 5-μm thick. The slices were stuck on slides and subjected to hematoxylin-eosin (HE) staining, dihydroethidium (DHE) staining, or immunofluorescent staining with F4/80 antibody. The stained slices were imaged using Biorevo (Keyence Co.), or where necessary, using confocal microscopy. For the HE staining, the images were photographed at 400× magnification, and the mean number of the crown like structures per one 40× field of view was counted as well. For the DHE staining, the percentage (%) of a red color value equal to or greater than a certain value relative to a randomly photographed 400× image per one field of view was measured using ImageJ. For the Immunofluorescent staining with F4/80 antibody, percentage (%) of F4/80 positive cells per nucleus in one field of view was measured. In addition, mRNAs of CCL2 and TNFα were quantified by quantitative RT-PCR method according to the method described in Experimental Example 4.

[7] = test system: p21 (Cdkn1a) and p16 (Cdkn2a) mRNA; assay: Quantitative RT-PCR of senescence markers p21 (Cdkn1a) and p16 (Cdkn2a) in visceral adipose tissue of obesity model mice; format: in vivo, mice (C57BL/6NCr); conditions: canagliflozin 0.03% w/w in diet, 3 days and 1 week, relative to Actb
Experimental: as §3, §4

p53 protein = assay: Western blotting of p53 protein in visceral adipose tissue of obesity model mice; format: in vivo, mice (C57BL/6NCr); conditions: canagliflozin 0.03% w/w in diet, one week
Experimental: as §3
Specifically, expression level of p53 protein was measured by Western blotting using a portion of the visceral adipose tissues collected in Experimental Example 2. Type 1C12 (CST) was used as the anti-p53 antibody. Anti-β-actin antibody (type 13E5, CST) was used as the antibody to detect β-actin protein, which is the loading control.

[8] = test system: senescent cells in the visceral adipose tissues; assay: Senescence-associated acidic β-galactosidase staining of visceral adipose tissue of diet-induced obesity model mice; format: in vivo, mice (C57BL/6NCr); conditions: canagliflozin 0.03% w/w in diet, one week
Experimental: as §3
For comparison, four-week-old wild-type mice (C57BL/6NCr) fed with normal diets for 8 weeks (hereinafter referred as “normal diet group”) and obesity model mice prepared in the same manner as described above with the exception of not administering canagliflozin (hereinafter referred to as “high fat diet group”) were prepared.
The visceral adipose tissues (epididymal adipose tissues) were collected from the mice of each group one week after starting administration of canagliflozin in Experimental Example 1.
as §2

[9] = SGLT2 inhibitor administration for 3 days and 7 days
[10] = SGLT2 inhibitor administration for 7 days

## O=CC[C@@H](O)[C@H](O)[C@H](O)CO [2DG, 2-deoxyglucose]
[1]
  apoptosis induction (percentage of apoptotic cells): increase the apoptosis induction
[2]
  selectivity of the effects for aged versus young cells: in an aged cell-selective manner
  cell viability: decrease of the cell viability

## CC(O)CC(=O)O (stereo not shown) [3HB, 3-hydroxybutyrate]
[1]
  apoptosis induction (percentage of apoptotic cells): increase the apoptosis induction
[2]
  selectivity of the effects for aged versus young cells: in an aged cell-selective manner
  cell viability: decrease of the cell viability

## NC(=O)c1ncn([C@@H]2O[C@H](CO)[C@@H](O)[C@H]2O)c1N [AIC, 5-Aminoimidazole-4-carboxamide-1-β-D-ribofuranoside]
[1]
  apoptosis induction (percentage of apoptotic cells): increased apoptosis induction
[2]
  selectivity of the effects for aged versus young cells: not in an aged cell-selective manner; also recorded: more potent effects in the young cells
  cell viability: decreased cell viability

## Cc1ccc([C@@H]2O[C@H](CO)[C@@H](O)[C@H](O)[C@H]2O)cc1Cc1ccc(-c2ccc(F)cc2)s1 [canagliflozin, (1S)-1,5-Anhydro-1-C(-3{[5-(4-fluorophenyl)thiophen-2-yl]methyl}-4-methylphenyl)-D-glucitol]
[3]
  deterioration of hair consistency and alopecia: reduced
[4]
  senescent cells in blood vessels (senescence-related β-galactosidase stainability): decreased the senescent cells stained blue
[5]
  AICAR in blood: significant increase of AICAR
  ketone body concentration in blood and each tissue: increase of ketone body concentration in blood and each tissue
[6]
  mRNA levels of p16 in the brown adipose tissue: tended to decrease
  mRNA levels of p16 in the kidney: tended to decrease
  mRNA levels of p21 in the heart: tended to decrease
  mRNA levels of p21 in the kidney: tended to decrease
  mRNA levels of p21 in the skeletal muscle: tended to decrease
Visceral adipose tissue; [9]
  mRNA expression of CCL2: tended to decrease
  mRNA expression of TNFα: tended to decrease
  macrophage infiltration into adipose tissue (immunofluorescent staining with F4/80): macrophage infiltration into adipose tissue remained
Visceral adipose tissue; [10]
  infiltration of macrophages and CLS structures (HE staining, number of CLS): significantly decreased
  oxidative stress (DHE staining, DHE positive area): significantly suppressed
[7]
  p16 mRNA levels in visceral adipose tissue: a similar trend was observed for p16
  p21 mRNA levels in visceral adipose tissue: significantly suppressed the increase of p21 mRNA levels
p53 protein
  expression level of p53 in the visceral adipose tissue (Western blotting): significantly lowered
[8]; high fat diet+SGLT2i group mice
  inflammation at the visceral fat: alleviation of inflammation at the visceral fat was also observed
[8]; obesity model mice, oral, vs high fat diet group
  senescent cells in the visceral adipose tissue (senescence-associated acidic β-galactosidase staining): significantly decreased the senescent cells in the visceral adipose tissue
